Data: patent US20240368133A1, “Compounds for the Treatment of Pain, in Particular, Neuropathic Pain, and/or Other Diseases or Disorders that are Associated with AT2R and/or AT2R Mediated Signaling” (Confo Therapeutics N.V., priority 2021, published 2024)

Key:
[1] = biological target: human AT1R (Homo sapiens (Human), UniProt P30556); assay: Counterscreen radioligand binding assay, displacement of 125I-[Sar1, Ile8]-Angiotensin II, hAT1R WT; conditions: for inhibition at 1 µM / inhibition at 10 µM: 125I-[Sar1, Ile8]-Ang II, semi-quantitative score; for inhibition at 1 µM: compound at 1 μM, read-out: % Displaced radioligand at 1 μM; for inhibition at 10 µM: compound at 10 μM, read-out: % Displaced radioligand at 10 μM; for IC50: HEK-293 cell membranes, read-out: Binding affinity On hAT1R IC50
Protocol: (§1) All synthesized ligands were evaluated in a radioligand assay by displacing ^125I-[Sar1, Ile8]-Angiotensin II (Perkin Elmer, NEX248050UC) from human AT2R fused to Cb23 or human/rodent/cynomolgus/minipig/dog WT AT2R in HEK-293 cells membrane preparations, using C21 (Vicore Pharma) and Angiotensin II (endogenous ligand) as reference. The affinity was determined using an eight-point dose-response curve, each point performed in duplicates. The compounds were also evaluated in a counterscreen binding assay for displacement of ^125I-[Sar1, Ile8]-Angiotensin II binding to human AT1R in HEK-293 cell membranes. For AT1R, the percent displacement was determined at 1 μM and […] (in duplicates) or using an eight-point dose-response curve, each point performed in duplicates with Candesartan and Losartan used as reference.
(§2) For the AT2R/AT1R binding assays, cell membranes, expressing AT2R_Cb23, AT2R or AT1R, were incubated with 0.05 nM ^125I-[Sarl, Ile8]-Ang II. The ligand competition assay was performed in a total volume of 100 μL assay buffer (50 mM Tris, 5 mM MgCl2, 1 mM EDTA, 0.1% BSA, pH 7.4), at concentrations ranging from […] to 10 μM. For each experiment, each ligand concentration was tested in duplicate. Non-specific binding (NSB) was determined by the inclusion of 10 μM unlabeled [Sarl]-Ang II (Sigma Aldrich). The reaction was initiated by the addition of radioligand, after which the plates were incubated at 25° C. for one hour. The reaction was terminated by rapid filtration using a vacuum harvester, applying six washes with 100 μL of ice-cold wash buffer (50 mM Tris.HCl, pH 7.4). The filter plates GF/C (Perkin Elmer) were pre-soaked in 0.5% PEI. The residual amount of radioactivity was determined via liquid scintillation counting. IC50 values, representing the concentration at which each ligand displaced 50% of ^125I-[Sarl, Ile8]-Ang II, were calculated using GraphPad Prism 7.02 by applying a Non-linear regression equation (variable slope, four parameters) on the data. The obtained values serve as affinity estimates for each ligand and their ability to compete against the radioligand for binding with AT2R or AT1R, respectively.

[2] = biological target: human AT2R fused to Cb23 (Homo sapiens, UniProt P50052); assay: Radioligand binding assay, displacement of 125I-[Sar1, Ile8]-Angiotensin II, hAT2R Cb23; conditions: displacement of 125I-[Sar1, Ile8]-Angiotensin II, human AT2R fused to Cb23, HEK-293 cell membrane preparations; read-out: Binding affinity on hAT2R_Cb23 IC50
Protocol: as §1, §2

Chain of human AT1R (P30556 whole entry, the tested form may be a part): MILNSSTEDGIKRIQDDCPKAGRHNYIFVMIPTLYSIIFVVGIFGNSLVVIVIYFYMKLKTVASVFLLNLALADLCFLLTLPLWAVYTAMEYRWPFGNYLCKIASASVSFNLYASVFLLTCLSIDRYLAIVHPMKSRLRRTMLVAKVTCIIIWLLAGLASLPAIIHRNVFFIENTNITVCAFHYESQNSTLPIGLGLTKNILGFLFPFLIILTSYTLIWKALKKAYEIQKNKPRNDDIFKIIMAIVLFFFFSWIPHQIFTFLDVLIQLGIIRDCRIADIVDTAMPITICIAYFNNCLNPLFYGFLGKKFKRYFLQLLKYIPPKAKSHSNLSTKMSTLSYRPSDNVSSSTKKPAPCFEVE
Chain of human AT2R fused to Cb23 (P50052 whole entry, looked up, the tested form may be a part): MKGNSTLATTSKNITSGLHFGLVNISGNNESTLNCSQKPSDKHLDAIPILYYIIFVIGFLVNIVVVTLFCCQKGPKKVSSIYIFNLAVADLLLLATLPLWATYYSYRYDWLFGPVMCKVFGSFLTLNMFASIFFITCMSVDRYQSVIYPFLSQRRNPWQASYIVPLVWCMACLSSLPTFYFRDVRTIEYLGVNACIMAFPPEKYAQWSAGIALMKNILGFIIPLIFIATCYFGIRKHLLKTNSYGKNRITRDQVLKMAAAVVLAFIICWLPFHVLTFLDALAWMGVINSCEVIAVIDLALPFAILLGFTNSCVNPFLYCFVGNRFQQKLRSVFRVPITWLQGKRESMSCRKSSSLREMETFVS

SMILES | inhibition at 1 µM [1] | inhibition at 10 µM [1] | IC50 [2] | IC50 [1]
CCS(=O)(=O)NC(=O)c1ccccc1CN1CCN(c2nc3ccccc3s2)CC1 [Compound A-02, 2-[[4-(1,3-benzo-thiazol-2-yl)piper-azin-1-yl]methyl]-N-ethylsulfonyl-benzamide] | < 30% | < 30% | 6.21 µM | 
c1ccc(-c2nn[nH]n2)c(CN2CCN(c3nc4ccccc4s3)CC2)c1 [Compound A-03, 2-[4-[[2-(2H-tetrazol-5-yl)phen-yl]-methyl]piper-azin-1-yl]-1,3-benzothiazole] | < 30% | < 30% | 15.9 µM | 
c1ccc(N2CCN(Cc3nc4ccccc4s3)CC2)c(-c2nn[nH]n2)c1 [Compound A-05, 2-[[4-[2-(2H-tetrazol-5-yl)phen-yl]piperazin-1-yl]-methyl]-1,3-benzo-thiazole] | < 30% | < 30% | 34.1 µM | 49.9 µM
c1ccc(N2CCC(Cc3nc4ccccc4s3)CC2)c(-c2nn[nH]n2)c1 [Compound A-06, 2-[[1-[2-(2H-tetrazol-5-yl)phen-yl]-4-piperidyl]-methyl]-1,3-benzo-thiazole] | < 30% | 30 to 50% | 16.5 µM | 25.4 µM
CCOC(=O)NS(=O)(=O)c1ccc(C(F)(F)F)cc1N1CCN(Cc2nc3ccccc3n2C)CC1 [Compound A-08, ethyl N-[2-[4-[(1-methylbenzimidazol-2-yl)methyl]piperazin-1-yl]-4-(trifluoromethyl)phenyl]sulfonylcarbamate] | < 30% | < 30% | 6.82 µM | 92.1 µM
CCCCOC(=O)NS(=O)(=O)c1ccc(C)cc1N1CCN(Cc2nc3ccccc3n2C)CC1 [Compound A-11, butyl N-[4-methyl-2-[4-[(1-methylbenzimidazol-2-yl)methyl]piperazin-1-yl]phenyl]sulfonylcarbamate] | < 30% | < 30% | 0.959 µM | 37.7 µM
CCS(=O)(=O)NC(=O)c1ccccc1N1CCN(Cc2nc3ccccc3n2C)CC1 [Compound A-13, N-ethylsulfonyl-2-[4-[(1-methylbenzimidazol-2-yl)methyl]piperazin-1-yl]benzamide] | < 30% | < 30% | 13.6 µM | 
CCS(=O)(=O)NC(=O)c1ccc(OC(C)C)cc1N1CCN(Cc2nc3ccccc3n2C)CC1 [Compound A-14, N-ethylsulfonyl-4-isopropoxy-2-[4-[(1-methylbenzimidazol-2-yl)methyl]piperazin-1-yl]benzamide] | < 30% | < 30% | 4.82 µM | 
Fc1cc(-c2nn[nH]n2)c(N2CCN(Cc3nc4ccccc4s3)CC2)cc1C1CC1 [Compound A-124, 2-[[4-[5-cycloprop-yl-4-fluoro-2-(2H-tetrazol-5-yl)phen-yl]piperazin-1-yl]-methyl]-1,3-benzo-thiazole] |  |  | 18.1 µM | 
Cc1cc(-c2nn[nH]n2)c(N2CCN(Cc3nc4ccccc4s3)CC2)cc1C1CC1 [Compound A-126, 2-[[4-[5-cycloprop-yl-4-methyl-2-(2H-tetrazol-5-yl)phen-yl]piperazin-1-yl]-methyl]-1,3-benzo-thiazole] |  |  | 22.6 µM | 
CCNc1cc(-c2nn[nH]n2)c(N2CCN(Cc3nc4ccccc4s3)CC2)cc1C1CC1 [Compound A-130, 4-[4-(1,3-benzothi-azol-2-ylmethyl)-piperazin-1-yl]-2-cyclopropyl-N-eth-yl-5-(2H-tetrazol-5-yl)aniline] |  |  | 28.8 µM | 
CC(=O)Nc1cc(-c2nn[nH]n2)c(N2CCN(Cc3nc4ccccc4s3)CC2)cc1C1CC1 [Compound A-131, N-[4-[4-(1,3-benzo-thiazol-2-ylmethyl)-piperazin-1-yl]-2-cyclopropyl-5-(2H-tetrazol-5-yl)phen-yl]acetamide] |  |  | 13.3 µM | 
CCc1cnc(-c2nn[nH]n2)c(N2CCN(Cc3nc4ccccc4s3)CC2)c1 [Compound A-141] |  |  | 22.7 µM | 
c1ccc2sc(CN3CCN(c4cc(C5CC5)ncc4-c4nn[nH]n4)CC3)nc2c1 [Compound A-144, 2-[[4-[2-cycloprop-yl-5-(2H-tetrazol-5-yl)-4-pyridyl]piper-azin-1-yl]methyl]-1,3-benzothiazole] |  |  | 14.8 µM | 
COc1cc(F)c(-c2nn[nH]n2)c(N2CCN(Cc3nc4ccccc4c(=O)[nH]3)CC2)c1 [Compound A-150, 2-[[4-[3-fluoro-5-methoxy-2-(2H-tetrazol-5-yl)phen-yl]piperazin-1-yl]-methyl]-3H-quin-azolin-4-one] |  |  | 33.8 µM | 
COc1cc(F)c(-c2nn[nH]n2)c(N2CCN(Cc3cccnn3)CC2)c1 [Compound A-155, 3-[[4-[3-fluoro-5-methoxy-2-(2H-tetrazol-5-yl)phen-yl]piperazin-1-yl]-methyl]pyridazine] |  |  | 72.8 µM | 
CC(C)Oc1cc(F)c(-c2nn[nH]n2)c(N2CCN(Cc3cccnn3)CC2)c1 [Compound A-156, 3-[[4-[3-fluoro-5-isopropoxy-2-(2H-tetrazol-5-yl)phen-yl]piperazin-1-yl]-methyl]pyridazine] |  |  | 11.6 µM | 
CC(C)Oc1ccc(-c2nn[nH]n2)c(N2CCN(Cc3cccnn3)CC2)c1F [Compound A-157, 3-[[4-[2-fluoro-3-isopropoxy-6-(2H-tetrazol-5-yl)phen-yl]piperazin-1-yl]-methyl]pyridazine] |  |  | 34.4 µM | 
CCc1cc(-c2nn[nH]n2)c(N2CCN(Cc3cccnn3)CC2)cc1OC(C)C [Compound A-158, 3-[[4-[4-ethyl-5-isopropoxy-2-(2H-tetrazol-5-yl)phen-yl]piperazin-1-yl]-methyl]pyridazine] |  |  | 44 µM | 
CCOc1cc(-c2nn[nH]n2)c(N2CCN(Cc3cccnn3)CC2)cc1OC(C)C [Compound A-162, 3-[[4-[4-ethoxy-5-isopropoxy-2-(2H-tetrazol-5-yl)phen-yl]piperazin-1-yl]-methyl]pyridazine] |  |  | 20.7 µM | 
Cc1cc(-c2nn[nH]n2)c(N2CCN(Cc3cccnn3)CC2)cc1CC(C)C [Compound A-166, 3-[[4-[5-isobutyl-4-methyl-2-(2H-tetrazol-5-yl)phen-yl]piperazin-1-yl]-methyl]pyridazine] |  |  | 22.1 µM | 
CC(C)Cc1cc(F)c(-c2nn[nH]n2)c(N2CCC(Cc3ccccn3)CC2)c1 [Compound A-237, 2-[[1-[3-fluoro-5-isobutyl-2-(2H-tetrazol-5-yl)phenyl]-4-piperidyl]methyl]pyridine] |  |  | 0.442 µM | 
CC(C)Cc1ccc(-c2nn[nH]n2)c(CN2CCN(Cc3cccnn3)CC2)c1 [Compound A-238, 3-[[4-[[5-isobutyl-2-(2H-tetrazol-5-yl)phenyl]methyl]-piperazin-1-yl]-methyl]pyridazine] |  |  | 18.8 µM | 
CCc1nc2ccccc2c(=O)n1CC1CCN(c2ccccc2-c2nn[nH]n2)CC1 [Compound A-240, 2-ethyl-3-[[1-[2-(2H-tetrazol-5-yl)-phenyl]-4-piperid-yl]methyl]quin-azolin-4-one] |  |  | 36.2 µM | 
CCc1nc2ccccc2c(=O)n1CC1CCN(c2ccccc2C(=O)NS(=O)(=O)CC)CC1 [Compound A-241, 2-[4-[(2-ethyl-4-oxo-quinazolin-3-yl)methyl]-1-piperidyl]-N-ethyl-sulfonyl-benzamide] |  |  | 42.5 µM | 
CCc1nc2ccc([N+](=O)[O-])cc2c(=O)n1CC1CCN(c2ccccc2-c2nn[nH]n2)CC1 [Compound A-242, 2-ethyl-6-nitro-3-[[1-[2-(2H-tetrazol-5-yl)phenyl]-4-piperidyl]methyl]quinazolin-4-one] |  |  | 27.7 µM | 
CCc1nc2ccc(NC(=O)C3CC3)cc2c(=O)n1CC1CCN(c2ccccc2-c2nn[nH]n2)CC1 [Compound A-247, N-[2-ethyl-4-oxo-3-[[1-[2-(2H-tetrazol-5-yl)phenyl]-4-piperidyl]methyl]-quinazolin-6-yl]-cyclopropane-carboxamide] |  |  | 35.3 µM | 
O=c1c2ccccc2nc(-c2ccccc2)n1CC1CCN(c2ccccc2-c2nnn[nH]2)CC1 [Compound A-249, 2-phenyl-3-[[1-[2-(2H-tetrazol-5-yl)phenyl]-4-piperidyl]methyl]quinazolin-4-one] |  |  | 79 µM | 
